Here are results for three compounds from US7544814B2, “[3.2.0] Heterocyclic compounds and methods of using the same” (Nereus Pharmaceuticals, Inc., priority 2004, dated 2009).

Molecules are shown by their SMILES. “And” between values parts separate entries of the source, which are not always exact repeats. Equal entries are not always repeated. Where two headings read alike, the source gives them in different places.

One data set relates to MDA-MB-231. Nature of the data set: Cell growth inhibition (resazurin), MDA-MB-231. Particulars: for cytotoxicity against MDA-MB-231, in words: from EC50 values. A general note: The colour change of resazurin is a common sign of viable cells or microbes.
For a further data set, the system named is HT-29. The experiment in a line: Cell growth inhibition (resazurin), HT-29. Conditions: for cytotoxicity against HT-29, in words: from EC50 values.
A further data set deals with RPMI 8226. Nature of the data set: Cell growth inhibition (resazurin), RPMI 8226. Conditions: for cytotoxicity against RPMI 8226, in words: from EC50 values; for EC50: 48 hours drug exposure.
The test system of another data set is OVCAR-3. The experiment in a line: Cell growth inhibition (resazurin), OVCAR-3. Particulars: for cytotoxicity against OVCAR-3, in words: from EC50 values.
The next data set concerns PC-3. Nature of the data set: Cell growth inhibition (resazurin), PC-3. The format is cell-based, human. Conditions: for cytotoxicity against PC-3, in words: from EC50 values.
The subject of another data set is U266. The experiment in a line: Cell growth inhibition (resazurin), U266. Particulars: for cytotoxicity against U266, in words: from EC50 values; for EC50: 48 hours drug exposure.
In data set [1] the target is T1, trypsin-like activity of purified rabbit muscle 20S proteasome (Oryctolagus cuniculus, UniProt G1SWK8).
T1 sequence (G1SWK8 1-271): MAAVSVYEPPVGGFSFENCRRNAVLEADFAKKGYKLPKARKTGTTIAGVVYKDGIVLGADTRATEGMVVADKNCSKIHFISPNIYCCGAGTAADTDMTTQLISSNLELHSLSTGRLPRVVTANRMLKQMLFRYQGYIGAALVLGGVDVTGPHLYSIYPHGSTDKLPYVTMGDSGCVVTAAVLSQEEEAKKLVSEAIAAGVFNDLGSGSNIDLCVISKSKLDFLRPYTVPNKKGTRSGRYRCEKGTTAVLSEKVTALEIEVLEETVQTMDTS
Nature of the data set: In vitro inhibition of 20S proteasome trypsin-like activity (Boc-LRR-AMC). Particulars: under the conditions tested.

Data set [2] concerns LeTx-mediated cytotoxicity of RAW 264.7 cells. Particulars: read-out: EC50 for inhibition of RAW 264.7 cell cytotoxicity mediated by anthrax lethal toxin; 45 minute preincubation, 1 μg/ml LF and PA, six hours; maximum concentration 330 nM.
The next data set has as its system NCI-H292. The experiment in a line: Cell growth inhibition (resazurin), NCI-H292. Particulars: for cytotoxicity against NCI-H292, in words: from EC50 values.
For a further data set, the system named is B16-F10. The experiment in a line: Cell growth inhibition (resazurin), B16-F10. Conditions: for cytotoxicity against B16-F10, in words: from EC50 values.
For another data set, the system named is NF-κB. Nature of the data set: NF-κB-mediated luciferase reporter gene assay, HEK293 NF-κB/Luc cells, TNF-α stimulation. The data set is classed as cell-based, human. Particulars: for effect on luciferase activity upon TNF-α stimulation, in words: pretreatment of NF-κB/Luc 293 cells; for EC50: read-out: EC50, NF-κB-mediated luciferase reporter gene assay, Table 5, values in nM, 1 hr pretreatment, TNF-α 6 hr. The procedure, abridged: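 Cells seeded at 1.5×10^4/well in phenol-red free DMEM, pretreated 1 h with 8-point half-log compound dilutions (DMSO stocks), then stimulated with TNF-α (10 μl of 50 ng/ml solution) for 6 h. Luciferase read as RLU after 10 min with Steady Lite reagent at room temperature.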
Background: A reporter such as luciferase makes a cellular process visible.

Data set [3] addresses T2, caspase-like activity of purified rabbit muscle 20S proteasome (Oryctolagus cuniculus, UniProt A0A5F9DQW2).
T2 sequence (A0A5F9DQW2 1-212): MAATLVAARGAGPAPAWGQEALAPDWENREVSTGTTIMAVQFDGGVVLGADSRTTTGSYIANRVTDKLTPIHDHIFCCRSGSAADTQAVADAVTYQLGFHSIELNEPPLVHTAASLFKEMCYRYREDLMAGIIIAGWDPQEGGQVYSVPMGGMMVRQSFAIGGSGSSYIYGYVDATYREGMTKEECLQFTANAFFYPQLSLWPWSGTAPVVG
The experiment in a line: In vitro inhibition of 20S proteasome caspase-like activity (Z-LLE-AMC).

The target of data set [4] is T3, chymotrypsin-like activity of purified rabbit muscle 20S proteasome (Oryctolagus cuniculus, UniProt G1T4Q9).
T3 sequence (G1T4Q9 1-263): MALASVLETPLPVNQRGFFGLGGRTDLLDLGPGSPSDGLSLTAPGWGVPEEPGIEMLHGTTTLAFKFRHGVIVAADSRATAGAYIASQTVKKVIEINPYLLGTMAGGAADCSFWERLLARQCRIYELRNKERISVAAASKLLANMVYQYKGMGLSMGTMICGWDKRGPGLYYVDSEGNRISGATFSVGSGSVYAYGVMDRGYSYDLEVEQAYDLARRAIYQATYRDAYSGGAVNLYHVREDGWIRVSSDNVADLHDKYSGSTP
Nature of the data set: In vitro inhibition of 20S proteasome chymotrypsin-like activity (suc-LLVY-AMC). Particulars: EC50 Chymotrypsin-like, Table 6, values in nM.

Data set [5] concerns the target T1, trypsin-like activity of purified rabbit muscle 20S proteasome. The experiment in a line: biochemical.
The nature of the next data set: Stability in solution. The format is physicochemical. Particulars: converted to VI-1B; mixture of II-48 and VI-1B in the ratio of 7:3. Here is the method: The reaction mixture was stirred at room temperature for about 3 hours. The solvent was evaporated from the reaction mixture to yield the compound of Formula II-48, which was purified by reversed phase HPLC using Ace 5u C18 column (150 mm×22 mm ID) with a solvent gradient of 10% to 70% H2O/Acetonitrile over 15 min, 70 to 100% Acetonitrile over 5 min, holding at 100% Acetonitrile for 4 min, at a flow rate of 14.5 ml/min. Diode array detector was used to monitor the purification process. Compound II-48 (10 mg) eluted as a pure compound at 8.255 min. […] Compound VI-1B: UV (Acetonitrile/H2O) λmax 235 (sh) nm; ESMS, m/z 585.2 (M+H)^−.

[6] abbreviates: read-out: EC50 against RPMI 8226, Table 1.
[7] abbreviates: read-out: RPMI 8226 EC50, Table 2, mean ± SD where n≥3.
The mark [8] stands for this setting: read-out: EC50 against U266, Table 1.

Turning to `C[C@@]12OC(=O)[C@]1([C@@H](O)[C@H]1CCCC3OC31)NC(=O)[C@@H]2CCCl` (single isomer, unassigned) [Formula II-5B], in the data set with MDA-MB-231, the “cytotoxicity against MDA-MB-231, in words” value was “cytotoxic”. For the same compound, the concentration giving a half-maximal response (EC50) – broadly, the midpoint of the concentration-response curve – is 957 nM in the data set on MDA-MB-231 (read-out: EC50 against MDA-MB-231, Table 1, 48 hours drug exposure, mean ± SD where n≥3); 1210 nM in the data set on HT-29 (read-out: EC50 against HT-29, Table 1, 48 hours drug exposure, mean ± SD where n≥3); 328 nM with RPMI 8226 (setting [6]); 326 nM and 328 nM in the data set on RPMI 8226 (setting [7]); 1330 nM in the data set with PC-3 (Table 1, 48 hours drug exposure, mean ± SD where n≥3, read-out: EC50 against PC-3); 111 nM with U266 (setting [8]). The EC50 was 118 nM and 111 nM with U266 (read-out: U266 EC50, Table 2); 45 nM in data set [2]; 1250 nM in the data set on NCI-H292 (read-out: EC50 against NCI-H292, Table 1, 48 hours drug exposure, mean ± SD where n≥3); 1140 nM with B16-F10 (read-out: EC50 against B16-F10, Table 1, 48 hours drug exposure, mean ± SD where n≥3); 279 nM with NF-κB; 3.8 µM and 2.9 µM in data set [3] (EC50 Caspase-like, Table 6, values in μM). Besides, the concentration for a half-maximal effect (EC50) in [3] (EC50 values, caspase-like activity, range in mixed units, summary of Table 6, range from nM to μM) was 0.956 to 8.7 µM; in [4], 85 nM. For the same compound, in the data set with HT-29, the “cytotoxicity against HT-29, in words” value is listed as “cytotoxic”. In addition, the “cytotoxicity against RPMI 8226, in words” value in the data set with RPMI 8226 is given as “cytotoxic”. In addition, the “cytotoxicity against OVCAR-3, in words” value in the data set on OVCAR-3 is reported as “cytotoxic”. Further, in the data set on PC-3, the “cytotoxicity against PC-3, in words” value was “cytotoxic”. In addition, the “cytotoxicity against U266, in words” value in the data set on U266 is “cytotoxic”. Also, the “inhibition of the trypsin-like activity of the 20S proteasome, in words” value in data set [1] is on record as “able to inhibit”. In addition, the “cytotoxicity against NCI-H292, in words” value in the data set on NCI-H292 was “cytotoxic”. Besides, in the data set on B16-F10, the “cytotoxicity against B16-F10, in words” value is listed as “cytotoxic”. In addition, in the data set with NF-κB, the “effect on luciferase activity upon TNF-α stimulation, in words” value is reported as “dose-dependent decrease”.
For `C[C@@]12OC(=O)[C@]1([C@@H](O)[C@H]1CCCC3OC31)NC(=O)[C@@H]2CCCl` (single isomer, unassigned) [Formula II-5A], the “cytotoxicity against MDA-MB-231, in words” value in the data set with MDA-MB-231 is listed as “cytotoxic”. The “cytotoxicity against HT-29, in words” value in the data set with HT-29 is on record as “cytotoxic”. Besides, in the data set with RPMI 8226, the “cytotoxicity against RPMI 8226, in words” value is given as “cytotoxic”. Also, the EC50 with RPMI 8226 (setting [6]) is 29 nM; in the data set on RPMI 8226 (setting [7]), 36 nM and 29 nM; in the data set with OVCAR-3 (read-out: EC50 against OVCAR-3, Table 1, 48 hours drug exposure) it was 64 nM; with U266 (setting [8]) it was 9 nM; with U266 (read-out: U266 EC50, Table 2), 10 nM and 9 nM; in [2] it was 3 nM. Besides, the concentration giving a half-maximal response (EC50) in data set [5] was 90 nM; in the data set with NF-κB, 33 nM; in [3] (EC50 Caspase-like, Table 6, values in nM), 0.535 µM and 0.438 µM; in data set [3] (EC50 values, caspase-like activity, summary of Table 6), 0.213 to 0.85 µM; in [4] it was 6 nM and 7 nM. In addition, the “cytotoxicity against OVCAR-3, in words” value in the data set with OVCAR-3 is “cytotoxic”. Further, the “cytotoxicity against PC-3, in words” value in the data set on PC-3 is on record as “cytotoxic”. The “cytotoxicity against U266, in words” value with U266 is reported as “cytotoxic”. Besides, the “inhibition of the trypsin-like activity of the 20S proteasome, in words” value in [1] is “able to inhibit”. Moreover, the “cytotoxicity against NCI-H292, in words” value in the data set on NCI-H292 is listed as “cytotoxic”. For the same compound, in the data set with B16-F10, the “cytotoxicity against B16-F10, in words” value is given as “cytotoxic”. The “effect on luciferase activity upon TNF-α stimulation, in words” value in the data set with NF-κB is on record as “dose-dependent decrease”.
For `C[C@]1(O)[C@@H](CCCl)C(=O)N[C@]1(C(=O)SCC(NC(=O)CCC(N)C(=O)O)C(=O)NCC(=O)O)[C@@H](O)[C@@H]1C=CCCC1` (stereo partly shown) [Formula II-48], the stability in solution result in “Stability in solution” is reported as “unstable in solution”.
